Measured values reported in US5053006A, “Method for the permanent occlusion of arteries” (priority 1990, dated 1991).
“And” between values parts separate entries of the source, which are not always exact repeats. Identical values can stand only once.

Key:
[1] = test system: conjunctival epithelium on vascularized corneas; test: Epithelial differentiation on photothrombosed corneas (goblet cells, cytology, histology); type: in vivo, New Zealand albino rabbit
Procedure: In order to study the goblet cell density on the vascularized corneas before and after photothrombosis, corneal flat-mounts were prepared and stained according to usual methods (Tseng et al., Invest. Opthalmol. Vis. Sci., 25:1168-76, 1984). The pattern of goblet cell disappearance was then analyzed and specifically correlated with the treated area.
(§1) The epithelial phenotype of the control and treated corneas was then studied by impression cytology (Tseng, Ophthalmology, 92:728-33, 1985) and routine histology using hematoxylin and PAS. In addition, immunofluorescent stainings of the frozen sections using a previously developed anti-rabbit ocular mucin monoclonal antibody [anti-ROM] was performed to study mucin expression.

corneal neovasculature = type: in vivo, New Zealand white rabbit
Text: Nine New Zealand white strain rabbits weighting 1 to 2 kg were rendered hypercholesterolemic by foods that contained high levels of cholesterol, as described in Stock et. al., Arch. Ophthalmol., 103:726-730, 1985; and Mendelsohn et al., Ophthalmic Surg., 17:502-508, 1986. Eight days after commencement of the high-cholesterol diet, corneal sutures were implanted in both eyes according to the surgical procedure described in Mendelsohn et al., Ophthalmic Surg., 17:502-508, 1986.
On day 22, slit-lamp photographs and fluorescein angiograms were obtained of all corneas (Mendelsohn et al., Arch. Ophthalmol., 105:983-988, 1987, the disclosure of which is hereby incorporated by reference and relied upon). On the next day, one eye of each rabbit underwent laser surgery, with the other eye serving as a comparative control. Rose bengal dye was dissolved at a concentration of 30 mg/ml in 0.9% saline solution. For the initial injection, the dye solution was administered at a total body concentration of 45 mg/kg. For the two animals in which the procedure took longer than 25 minutes, a booster injection of 15 mg/kg was administered. Irradiations of corneal vessels were carried out with an argon ion laser (Model 95, Cooper Laser-Sonica, Sunnyvale, Calif.) operated in the TEM00 mode at 514.5 nm. The beam was directed toward an aluminized mechanical shutter (AW Vincent Associates, Rochester, NY), which reflected it at a right angle through a 514.5-nm custom interference filter with a transmittance of 92% (Omega Optical, Brattleboro, VT) and then through a fused silica lens with a focal length of 7.5 cm for focusing into a 2.5-m fiberoptic cable 400 μm in diameter. In the optical fiber, the gaussian input beam profile was converted into an output beam. The output was collimated by a plano convex lens 3.5 cm in focal length and focused with a plano convex lens with a focal length of 1.0 cm. The lenses were mounted in a beam telescope attached to an X-Y positioning device (Daedal Inc., Harrison City, Pa.). The beam diameter was measured with a calibrated reticle in the ocular of a ×20 operating microscope. By observing, through a 514.5-nm rejection filter, the fluorescence of a white card impregnated with rhodamine B, the minimum diameter of the organe fluorescent spot at the focal point was determined to be 63 μm. Combining the transmission efficiencies of the three uncoated lenses (92% per lens, 76% total transmission) with those of the optical fiber and interference filter yielded a system transmission efficiency of 61.5%. This reduced the incident power level of the laser from 215 mW to an effective power level of 132 mW; this corresponded to an incident intensity at the focal point of 4.23 kW/cm^2 . During shutter closure, irradiations were carried out in 0.2-s intervals. When the shutter was opened, the low-power beam, which was reflected off an optical flat and through the optical system, was used for aligning the next vessel selected for irradiation.
One eye of each rabbit was subjected to laser applications that were directed toward the vascular branching points of the limbal and corneal feeder vessels adjacent to the sites of lipid deposits. The irradiated blood vessel segment was observed through the ×20 operating microcope fitted with the 514.5-nm rejection band interference filter. Initially, the irradiated segment appeared yellow-orange because the fluorescence of rose bengal had been absorbed into erythrocyte plasma membranes and plasma proteins. As platelets accumulated, the fluorescence became yellowish and less intense. The color gradually disappeared due to the exclusion of red blood cells, indicating occlusion of the vessel. A striking event that preceded the thrombus was intense vasoconstriction at the site of irradiation. Constriction of the vessel could be observed following the initial one to three laser shots in each segment. […]

rabbit ocular mucin = test: Immunofluorescence of mucin expression with anti-ROM antibody; type: in vivo
Procedure: as §1
To further confirm the transition of epithelial differentiation, a monoclonal antibody against rabbit ocular mucin [anti-ROM] was used to examine the expression of mucin, the major product of goblet cells.

Procedure for middle cerebral artery: In order to conduct irradiation of the rat middle cerebral artery at normal blood pressure, oral intubation was performed and mechanical ventilation was initiated after paralysis with pancuronium bromide. The rat was then placed on a tiltable stereotaxic frame, and the middle cerebral artery was exposed through a subtemporal approach. The right temporalis musculature was reflected anteriorally, and a 2×2 mm subtemporal craniotomy was carried out with the aid of a high-speed drill under a dissecting microscope, leaving the middle cerebral artery exposed and the dura intact at the level of the olfactory tract. Rose bengal dye (2 mg in 0.133 ml saline per 100 g animal weight) was administered intravenously, resulting in a blood concentration of 340 μM.
The right middle cerebral artery, at a point just distal to the olfactory branches, was irradiated with the beam of a tunable argon ion laser (Lexel Model 95, Cooper LaserSonics, Santa Clara, CA), operated at 514.5 nm in the continuous mode at a power level of 50 mW. The beam was focused longitudinally onto the middle cerebral artery with two cylindrical lenses, both of 30 cm focal length. […] During irradiation, the irradiated segment appeared orange, owing to rose bengal fluorescence in the flowing blood stream. […]

**Q.** Which results are given for `O=C([O-])c1c(Cl)c(Cl)c(Cl)c(Cl)c1-c1c2cc(I)c(=O)c(I)c-2oc2c(I)c([O-])c(I)cc12.[Na+].[Na+]` [rose bengal]?
**A.** goblet cells on the cornea ([1]; four weeks): no goblet cells were noted; histology of epithelium ([1]; four weeks): stratified cornea-like epithelium; goblet cell density, cytology ([1]; one week): decreased goblet cell density; epithelial N/C ratio ([1]; one week, impression cytology): slight increase; goblet cell density ([1]; treated areas, four days): remarkably decreased; No. of Laser Shots (corneal neovasculature; 60 mg/kg (45 mg/kg plus booster 15 mg/kg 25 minutes later), individual rabbit): 86 and 106; treated corneal vessels occluded (corneal neovasculature; 21 days after laser): about 95%; fluorescein perfusion (corneal neovasculature; 21 days after laser, nine treated eyes): complete lack of perfusion; laser shots required, average (corneal neovasculature; average): 85 laser shots per quadrant; laser shots to vessel constriction (corneal neovasculature; each segment): one to three; acute and chronic inflammatory cells (corneal neovasculature; rabbit, in vivo): mild to moderate numbers; corneal edema or polymorphonuclear leukocyte infiltration (corneal neovasculature; rabbit, in vivo): does not produce corneal edema or polymorphonuclear leukocyte infiltration; inflammation along limbal vessels (corneal neovasculature; rabbit, in vivo): No signs of inflammation; new vessels formed in response to treatment (corneal neovasculature; rabbit, in vivo): nor were any new vessels formed; laser shots required to occlude the corneal neovasculature (corneal neovasculature; range): 58 to 106 laser shots per quadrant; times less incident intensity than photocoagulation (corneal neovasculature; vs photocoagulation): 8.5 times; times less total light exposure than photocoagulation (corneal neovasculature; vs photocoagulation): 27.5 times; mucin in epithelium of occluded corneas (rabbit ocular mucin; four weeks): complete absence; expression of mucin antigen (rabbit ocular mucin; with time after vessel occlusion): diminish gradually with time; irradiation time (middle cerebral artery; 2 mg per 100 g i.v., 50 mW, 514.5 nm): ~5 min; occluded segment length (middle cerebral artery; rat, in vivo): approximately 1 mm; pH of isotonic saline solution (15 mg/ml): 6.80; highest concentration which could be achieved practically (normal saline): 100 mg/mL
